The results in this text go back to ChEMBL document CHEMBL1201862, “PubChem BioAssay data set” (2004).

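Grown in 96-well plates, cells were treated for 48 hours with each compound at five concentrations. Insufficient inhibition: endpoint recorded as highest concentration tested. At the GI50, growth is halved.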 Activity calls are given as the source filed them. Rule as the data show it: active = GI50 up to about 1.1 µM and inactive = higher.

Some test systems named below: HT-29; UO-31; SF-295; PC-3; HL-60; SK-MEL-28; NCI-H226; BT-549; SF-268; KM12; SF-539; Hs-578T; HOP-62; SW-620; K562; MDA-MB-231; SN12C; IGROV-1; M14; NCI-H522.
What all share (experiment): NCI anticancer screen, dose series, 48 h

In the case of `CCN1CCc2sc3nc(S)n(C)c(=O)c3c2C1`, the GI50 with HT-29 was > 100 µM (inactive); in the assay on UO-31, > 100 µM (inactive); in the assay on SF-295, > 100 µM (inactive); with PC-3, > 100 µM (inactive); with HL-60, < 0.01 µM (active); in the assay with SK-MEL-28, > 100 µM (inactive). Also, the GI50 in the assay on NCI-H226, in the assay with BT-549, in the assay with SF-268, in the assay on KM12, in the assay with SF-539 and in the assay on Hs-578T was > 100 µM (inactive) throughout. In addition, the GI50 in the assay on HOP-62, in the assay with SW-620, in the assay on K562, in the assay with MDA-MB-231, in the assay on SN12C and in the assay on IGROV-1 was > 100 µM (inactive) each time. Besides, the GI50 in the assay with M14 and in the assay with NCI-H522 was > 100 µM (inactive) each time.

For `COc1nc(N(C)C)nc2c1[n+](C)cn2C` [HETEROMINE A], the GI50 in the assay with HT-29 was > 100 µM (inactive); in the assay on UO-31 it was > 100 µM (inactive); in the assay on SF-295 it was 38.9 µM (inactive); in the assay on PC-3, > 100 µM (inactive); with HL-60, 36.6 µM (inactive); with SK-MEL-28, 88.9 µM (inactive). Further, the GI50 was > 100 µM (inactive) in the assay on NCI-H226; 28.7 µM (inactive) in the assay with BT-549; 31.8 µM (inactive) in the assay with SF-268; 27.7 µM (inactive) in the assay with KM12; 52.6 µM (inactive) in the assay on SF-539; 40.3 µM (inactive) in the assay on Hs-578T. For the same molecule, the GI50 with HOP-62 is > 100 µM (inactive); in the assay on SW-620, 57.5 µM (inactive); with K562, 18.6 µM (inactive); with MDA-MB-231, > 100 µM (inactive); in the assay with SN12C, 72.8 µM (inactive); with IGROV-1 it was > 100 µM (inactive). Moreover, the figures for the GI50 with M14 and with NCI-H522 were > 100 µM (inactive) and 17.1 µM (inactive), respectively.
